Measured values taken from PMC4941374, “Therapy of pancreatic cancer via an EphA2 receptor-targeted delivery of gemcitabine” (Oncotarget, 2016).
“Also recorded” adds a separate entry of the source.

What was measured:
[1] = tested on: EphA3 ligand binding domain (EphA3-LBD); assay: Isothermal titration calorimetry (ITC), EphA3 LBD; conditions: 50 mM phosphate buffer pH 6.5, 100 mM NaCl, ~50% sequence identity with the EphA2 LBD
Protocol: (§1) To further verify the binding affinity and selectivity of the resulting conjugates for the EphA2 ligand binding domain (LBD), we expressed and purified EphA2 and […]. These proteins were dissolved to a final concentration of 100 μM in 50 mM phosphate buffer (pH = 6.5), containing 100 mM NaCl.
(§2) All linear peptides and peptide mimetics were assembled using standard Fmoc peptide synthesis protocol with the Rink amide resin on 433A Peptide Synthesizer (Applied Bio-Systems). In general, in each coupling reaction, approximately 10 equivalents of Fmoc-amino acid, 0.45 M solution of HOBt/HBTU (9 equiv) in DMF, 2 M solution of DIEA in NMP were used, for about 9 minutes. Fmoc de-protection was performed with 20% piperidine in DMF for 10 min. Each peptide was subsequently cleaved from the resin and all protecting groups removed by exposure to a 94% TFA, 2 % water, 2% tri-isopropylsilane, 2% phenol mixture for approximately 3 h. The TFA mixture was subsequently removed under reduced pressure and the peptides were precipitated in diethyl ether, centrifuged, and washed with diethyl ether prior to drying in high vacuum. The crude peptides were purified by preparative reverse phase HPLC. The final compounds were characterized by NMR and MALDI-Mass. […] EphA2-LBD and EphA3-LDB were expressed as reported recently. […]

[2] = tested on: MIA PaCa-2-luc pancreatic cancer xenografts; assay: MIA PaCa-2-luc subcutaneous xenograft, YNH-L2-Gemcitabine study; format: in vivo, human tumor cells in athymic nude mice; conditions: for effect on tumor growth: 10 mg/kg Gemcitabine or equimolar conjugate, tail vein, twice per week for 4 weeks, 9 mice/group, caliper tumor volume and BLI; for survival time: Kaplan-Meier, days, mice sacrificed when moribund, Supplementary Figure S2 top
Protocol: MIA PaCa-2-luc cells were used to create bilateral subcutaneous xenografts in athymic nude mice. […] Cells were injected into each flank and then allowed to grow for approximately 1 week. At this point, mice were imaged using BLI and treatment was subsequently initiated. Mice were divided into 4 groups (PBS, Gemcitabine, YDH-L2-Gemcitabine, YNH-L2-Gemcitabine) with 9 mice/group. YDH-L2-Gemcitabine is a scrambled control, where the peptide attached to Gemcitabine should not be specific for EphA2 and, therefore, should not bind to the receptor. Animals were treated 2 times per week via tail vein injection for 4 weeks. A dose of 10 mg/kg Gemcitabine was used along with equimolar doses of YDH-L2-Gemcitabine and YNH-L2-Gemcitabine. At the end of 4 weeks, animals were again imaged and treatment was ended.
(§3) Isothermal Titration Calorimetry (ITC) measurements were obtained with Model ITC200 from Microcal/GE Life Sciences. For in vivo studies, all drugs were diluted in 10% Tween-80, 10% DMSO, and 80% PBS.
(§4) 5 × 10^6 MIA PaCa-2-luciferase cells were used to establish bilateral subcutaneous tumors on the flanks of 8–10 week old male athymic nude mice. Studies were done as previously described. Treatment began when tumors reached a palpable size (∼50–100 mm^3) with 9 mice per group. All drugs were administered by tail vein injection twice per week for 4 weeks, for a total of 8 injections. […] BLI measurements were performed at the beginning and end of the study. During imaging, mice were placed in the imaging chamber and maintained with 2% isoflurane gas anesthesia at a flow rate of approximately 0.5–1 L/min per mouse. Anesthetized mice were injected IP with 150 mg/kg body weight D-Luciferin (Xenogen Corporation, Alameda, CA). After approximately 10 min, mice were imaged using a charge-coupled-device (CCD) camera coupled to the Xenogen in vivo imaging (IVIS) imaging system (Caliper Life Sciences, Inc., Hopkinton, MA).
Tumors were measured twice per week using calipers. For in vivo studies, data shown are the mean + SEM and for statistical comparisons we used the two-way Anova analyses (GraphPad). After their last injection, mice were kept for 1 additional week to monitor tumor growth and imaged at the end of that week. The mice were then kept to monitor for the effects of treatment on survival. Mice were kept until reaching a moribund status and they were then sacrificed at that time.

[3] = tested on: pancreatic cancer; conditions: 126 patients, 63 per group; ref [3]; cited from earlier work
Text: In 1997, Burris, et al. published a clinical study comparing Gemcitabine to 5-Fluoruracil (5-FU) for the treatment of pancreatic cancer. In this study, 126 patients were enrolled with 63 per treatment group. […] The median survival was 5.65 months for Gemcitabine and 4.41 months for 5-FU. […] This trial encouraged the ...

[4] = tested on: metastatic pancreatic cancer; design: method as in PMID 24131140; conditions: 861 patients, ref [36]; cited from earlier work
Text: There is a vital need to develop novel therapies that provide greater clinical benefit to patients without undue toxicity. A Phase 3 clinical study in patients with metastatic pancreatic cancer evaluated nab-Paclitaxel (Abraxane) + Gemcitabine versus Gemcitabine alone in a total of 861 patients.

[5] = tested on: hENT1; design: method as in PMID 22978251; conditions: sodium-independent transporter; ref [4]; cited from earlier work
Text: (§5) Though there are multiple mechanisms of Gemcitabine resistance, one important mechanism revolves around expression of this protein. […] Patients with higher hENT1 expression have tumors that can more readily take ...

[6] = tested on: tumors expressing hENT1; design: method as in PMID 16818496; conditions: high versus lower hENT1 expression; ref [5]; cited from earlier work
Text: as §5

[7] = target: T1, EphA2 ligand binding domain (EphA2-LBD) (Homo sapiens, UniProt P29317); assay: Isothermal titration calorimetry (ITC), EphA2 LBD; conditions: 50 mM phosphate buffer pH 6.5, 100 mM NaCl, as given in legend
T1 construct: made in house
T1 sequence (P29317 28-206 limits assumed): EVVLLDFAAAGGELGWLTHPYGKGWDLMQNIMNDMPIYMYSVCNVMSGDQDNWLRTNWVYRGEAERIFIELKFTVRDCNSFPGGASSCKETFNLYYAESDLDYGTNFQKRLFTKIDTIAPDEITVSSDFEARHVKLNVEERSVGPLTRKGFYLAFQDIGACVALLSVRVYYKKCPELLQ
Protocol: as §1, §2

[8] = tested on: MIA PaCa-2-luc pancreatic cancer xenografts; assay: MIA PaCa-2-luc subcutaneous xenograft, 123B9-L2-Gem study; format: in vivo, human tumor cells in athymic nude mice
Protocol: Similarly, in a separate experiment we compared the efficacy of equimolar doses of Gemcitabine and 123B9-L2-Gem (Figure 3C, 3D).
as §3, §4
Tumors were measured twice per week using calipers. […]

Row | Compound | binding to EphA3 LBD (in words) [1] | effect on tumor growth [2] | survival time [2] | median survival [3] | patients alive at 12-month time point [3] | patients with clinical benefit [3] | further results
1 | CCCC[C@H](NC(=O)[C@@H]1CCCN1C(=O)[C@@H](NC(=O)[C@H](CO)NC(=O)[C@H](CC(=O)O)NC(=O)[C@@H]1CCCN1C(=O)[C@H](Cc1ccc(O)cc1)NC(=O)[C@H](C)NC(=O)[C@H](CO)NC(=O)[C@@H](N)Cc1ccc(O)cc1)C(C)C)C(=O)N[C@@H](CCO)C(=O)N[C@@H](CO)C(=O)N[C@@H](CCCCNC(=O)CCCc1cn(CCCCCC(=O)O[C@@H]2[C@@H](CO)O[C@@H](n3ccc(N)nc3=O)C2(F)F)nn1)C(N)=O [YNH-L2-Gem] | No appreciable binding was detected | significant efficacy was observed | prolong survival | – | – | – | effect on tumor growth ([2]; listed as YNH-L2-Gemcitabine): showed the greatest inhibition of tumor growth of all groups evaluated; also recorded: inhibits tumor growth in vivo to a greater extent as compared to Gemcitabine; survival time ([2]; listed as YNH-L2-Gemcitabine): significant increase in the median survival time compared to untreated mice
2 | O=c1[nH]cc(F)c(=O)[nH]1 [5-FU, 5-Fluoruracil] | – | – | – | 4.41 months | 2% | 4.8% | –
3 | Nc1ccn([C@@H]2O[C@H](CO)[C@@H](O)C2(F)F)c(=O)n1 [Gemcitabine] | – | had a modest effect on tumor growth; also recorded: did not exhibit significant efficacy compared to mice treated with vehicle only as control | significant increase in the median survival time compared to untreated mice | 5.65 months | 18% | 23.8% | median survival [4]: 6.7 months; response rate [4]: 7%; survival rate at 1 year [4]: 22%; survival rate at 2 years [4]: 4%; transport by hENT1 [5]: preferentially transport Gemcitabine; survival advantage with high tumor hENT1 expression [6]: greater survival advantage with Gemcitabine treatment as compared to those with lower hENT1 expression
4 | CCCC[C@H](NC(=O)[C@@H]1CCCN1C(=O)[C@@H](NC(=O)[C@H](CO)NC(=O)[C@H](CC(=O)O)NC(=O)[C@@H]1CCCN1C(=O)[C@H](Cc1ccc(O)cc1)NC(=O)[C@H](C)NC(=O)[C@H](CO)NC(=O)COc1ccc(F)c(Cl)c1)C(C)C)C(=O)N[C@@H](CCO)C(=O)N[C@@H](CO)C(=O)N[C@@H](CCCCNC(=O)CCCc1cn(CCCCCC(=O)O[C@@H]2[C@@H](CO)O[C@@H](n3ccc(N)nc3=O)C2(F)F)nn1)C(N)=O [123B9-L2-Gem] | No appreciable binding was detected | – | – | – | – | – | ΔH, binding to EphA2 LBD [7]: -46 kJ/mol; survival time ([8]; Kaplan-Meier, days, mice sacrificed when moribund, Supplementary Figure S2 bottom): significantly longer than both untreated and Gemcitabine treated groups; also recorded: significant increase in survival time; also recorded: prolong survival; effect on tumor growth ([8]; equimolar doses, equivalent of 10 mg/Kg Gemcitabine, tail vein, twice per week for 4 weeks, caliper tumor volume and BLI, 10 mg/kg): significantly more effective than gemcitabine alone in suppressing tumor growth; also recorded: significant efficacy was observed
